Assays:
[1] = tested on: Japanese bulrush; experiment: Test Example 1: herbicidal activity, application before weed generation under submerged conditions (Table 16, symbol B); format: in vivo, Japanese bulrush (Schoenoplectus juncoides); details: amount of applied herbicide 320 g/ha
Method in brief: (§1)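 Submerged Wagner pots (alluvial soil, 4 cm water) sown with weed seeds and planted with 2.5-leaf rice seedlings; emulsifiable concentrate diluted in water applied to water surface on sowing day. Held in greenhouse at 25-30 °C; injury scored 0-5 by herbicidal rate after three weeks.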

[2] = tested on: oval-leafed pondweed; experiment: Test Example 1: herbicidal activity, application before weed generation under submerged conditions (Table 16, symbol C); format: in vivo, oval-leafed pondweed (Monochoria vaginalis); details: amount of applied herbicide 320 g/ha
Method in brief: as §1

[3] = tested on: late watergrass; experiment: Test Example 2: herbicidal activity, application during weed generation under submerged conditions (Table 17, symbol A); format: in vivo, late watergrass (Echinochloa oryzicola); details: AAH 320 g/ha; application during weed generation, submerged conditions
Method in brief: (§2)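 Effect on each weed is rated three weeks post-treatment, using the same scoring criteria as the preceding test. Plants grow from mixed-sown seed in flooded alluvial soil (4 cm water) at 25° C. to 30° C., and are treated at one to two leaves with diluted emulsion dropped onto the water.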

[4] = tested on: rice flat sedge; experiment: Test Example 3: herbicidal effect by foliage application, Wagner pot (Table 18, symbol E); format: in vivo, rice flat sedge (Cyperus iria); details: for herbicidal effect on E: rice flat sedge: amount of applied herbicide 320 g/ha; for herbicidal effect on rice flat sedge (E): 320 g/ha
Method in brief: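 Plants were sown in alluvial soil held under 0.1–0.5 cm standing water and grown 14 days in a greenhouse at 25–30 °C. An emulsifiable formulation, water-diluted to the set dose, was then sprayed onto the foliage, and effects were scored three weeks later using previously defined criteria.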

[5] = tested on: wild oat; experiment: Test Example 4: herbicidal effect by soil treatment (Table 19, symbol I); format: in vivo, wild oat (Avena fatua); details: amount of applied herbicide 320 g/ha
Method in brief: (§3)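 In this soil treatment, the formulated compound reached the seeds only through the soil: seeds were buried about 1.5 cm deep in sterilized diluvial soil, then the diluted emulsion was sprayed over the surface. After three weeks at 25° C. to 30° C. in a greenhouse, effects were graded on criteria from an earlier test.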

[6] = tested on: Italian ryegrass; experiment: Test Example 4: herbicidal effect by soil treatment (Table 19, symbol K); format: in vivo, Italian ryegrass (Lolium multiflorum); details: amount of applied herbicide 320 g/ha
Method in brief: as §3

[7] = tested on: velvetleaf; experiment: Test Example 4: herbicidal effect by soil treatment (Table 19, symbol M); format: in vivo, velvetleaf (Abutilon theophrasti); details: amount of applied herbicide 320 g/ha
Method in brief: as §3

[8] = tested on: lambsquarters; experiment: Test Example 4: herbicidal effect by soil treatment (Table 19, symbol O); format: in vivo, lambsquarters (Chenopodium album); details: amount of applied herbicide 320 g/ha
Method in brief: as §3

[9] = tested on: persian speedwell; experiment: Test Example 4: herbicidal effect by soil treatment (Table 19, symbol R); format: in vivo, Persian speedwell (Veronica persica); details: amount of applied herbicide 320 g/ha
Method in brief: as §3

[10] = tested on: barnyard grass; experiment: Test Example 5: herbicidal effect by foliage application, plastic box (Table 20, symbol H); format: in vivo, barnyard grass (Echinochloa crus-galli); details: foliage application, 320 g/ha, three weeks after application
Method in brief: (§4)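 Plants were sown into sterilized diluvial soil under about 1.5 cm cover and kept in a greenhouse at 25° C. to 30° C. Fourteen days on, foliage received an even spray of the diluted emulsion. Herbicidal or crop effect was judged three weeks afterwards.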

[11] = tested on: wild oat; experiment: Test Example 5: herbicidal effect by foliage application, plastic box (Table 20, symbol I); format: in vivo, wild oat (Avena fatua); details: foliage application, 320 g/ha, three weeks after application
Method in brief: as §4

[12] = tested on: Italian ryegrass; experiment: Test Example 5: herbicidal effect by foliage application, plastic box (Table 20, symbol K); format: in vivo, Italian ryegrass (Lolium multiflorum); details: foliage application, 320 g/ha, three weeks after application
Method in brief: as §4

[13] = tested on: windgrass; experiment: Test Example 5: herbicidal effect by foliage application, plastic box (Table 20, symbol L); format: in vivo, windgrass (Apera spica-venti); details: foliage application, 320 g/ha, three weeks after application
Method in brief: as §4

[14] = tested on: velvetleaf; experiment: Test Example 5: herbicidal effect by foliage application, plastic box (Table 20, symbol M); format: in vivo, velvetleaf (Abutilon theophrasti); details: foliage application, 320 g/ha, three weeks after application
Method in brief: as §4

[15] = tested on: lambsquarters; experiment: Test Example 5: herbicidal effect by foliage application, plastic box (Table 20, symbol O); format: in vivo, lambsquarters (Chenopodium album); details: foliage application, 320 g/ha, three weeks after application
Method in brief: as §4

[16] = tested on: chickweed; experiment: Test Example 5: herbicidal effect by foliage application, plastic box (Table 20, symbol P); format: in vivo, common chickweed (Stellaria media); details: foliage application, 320 g/ha, three weeks after application
Method in brief: as §4

[17] = tested on: Japanese bulrush; experiment: Test Example 2: herbicidal activity, application during weed generation under submerged conditions (Table 17, symbol B); format: in vivo, Japanese bulrush (Schoenoplectus juncoides); details: AAH 320 g/ha; application during weed generation, submerged conditions
Method in brief: as §2

Compound	Herbicidal effect, B: Japanese bulrush [1]	Herbicidal effect, C: oval-leafed pondweed [2]	herbicidal effect rating, A: late watergrass [3]	herbicidal effect on E: rice flat sedge [4]	herbicidal effect, I: wild oat [5]	herbicidal effect, K: Italian ryegrass [6]	herbicidal effect, M: velvetleaf [7]	H: barnyard grass, herbicidal effect grade [10]	I: wild oat, herbicidal effect grade [11]	K: Italian ryegrass, herbicidal effect grade [12]	L: windgrass, herbicidal effect grade [13]	M: velvetleaf, herbicidal effect grade [14]	O: lambsquarters, herbicidal effect grade [15]	P: chickweed, herbicidal effect grade [16]	herbicidal effect rating, B: Japanese bulrush [17]	herbicidal effect on rice flat sedge (E) [4]	I: wild oat, herbicidal effect grade [5]	K: Italian ryegrass, herbicidal effect grade [6]	M: velvetleaf, herbicidal effect grade [7]	O: lambsquarters, herbicidal effect grade [8]	also measured
CCCC(=O)Oc1c(C)nn(C)c(=O)c1-c1c(-c2ccc(F)cc2OC)sc2cc(F)ccc12 [3-010]	4 (Herbicidal rate of 70% or more and less than 90%)	3 (Herbicidal rate of 40% or more and less than 70%)	3 (Herbicidal rate of 40% or more and less than 70%)	4 (Herbicidal rate of 70% or more and less than 90%)	4 (Herbicidal rate of 70% or more and less than 90%)	4 (Herbicidal rate of 70% or more and less than 90%)	0 (Herbicidal rate of 5% or less (almost no effect))	5 (Herbicidal rate of 90% or more (almost completely withered))	5 (Herbicidal rate of 90% or more (almost completely withered))	4 (Herbicidal rate of 70% or more and less than 90%)	5 (Herbicidal rate of 90% or more (almost completely withered))	5 (Herbicidal rate of 90% or more (almost completely withered))	5 (Herbicidal rate of 90% or more (almost completely withered))	5 (Herbicidal rate of 90% or more (almost completely withered))							herbicidal effect, O: lambsquarters [8]: 5 (Herbicidal rate of 90% or more (almost completely withered)); herbicidal effect, R: persian speedwell [9]: 5 (Herbicidal rate of 90% or more (almost completely withered))
CCCC(=O)Oc1c(C)nn(C)c(=O)c1-c1c(-c2ccc(OC(C)C)cc2)sc2cc(F)ccc12 [3-020]	3 (Herbicidal rate of 40% or more and less than 70%)	2 (Herbicidal rate of 20% or more and less than 40%)	1 (Herbicidal rate of 5% or more and less than 20%)	5 (Herbicidal rate of 90% or more (almost completely withered))	0 (Herbicidal rate of 5% or less (almost no effect))	0 (Herbicidal rate of 5% or less (almost no effect))	0 (Herbicidal rate of 5% or less (almost no effect))	2 (Herbicidal rate of 20% or more and less than 40%)	0 (Herbicidal rate of 5% or less (almost no effect))	2 (Herbicidal rate of 20% or more and less than 40%)	0 (Herbicidal rate of 5% or less (almost no effect))	3 (Herbicidal rate of 40% or more and less than 70%)	3 (Herbicidal rate of 40% or more and less than 70%)	5 (Herbicidal rate of 90% or more (almost completely withered))	0 (Herbicidal rate of 5% or less (almost no effect))						herbicidal effect, O: lambsquarters [8]: 0 (Herbicidal rate of 5% or less (almost no effect))
COc1ccccc1-c1sc2cc(OCC3CC3(F)F)ccc2c1-c1c(O)c(C)nn(C)c1=O (stereo not shown) [3-131]	5 (Herbicidal rate of 90% or more (almost completely withered))	5 (Herbicidal rate of 90% or more (almost completely withered))	5 (Herbicidal rate of 90% or more (almost completely withered))					5 (Herbicidal rate of 90% or more (almost completely withered))	5 (Herbicidal rate of 90% or more (almost completely withered))	5 (Herbicidal rate of 90% or more (almost completely withered))	5 (Herbicidal rate of 90% or more (almost completely withered))	4 (Herbicidal rate of 70% or more and less than 90%)	5 (Herbicidal rate of 90% or more (almost completely withered))	5 (Herbicidal rate of 90% or more (almost completely withered))	3 (Herbicidal rate of 40% or more and less than 70%)	5 (Herbicidal rate of 90% or more (almost completely withered))	3 (Herbicidal rate of 40% or more and less than 70%)	5 (Herbicidal rate of 90% or more (almost completely withered))	3 (Herbicidal rate of 40% or more and less than 70%)	5 (Herbicidal rate of 90% or more (almost completely withered))	
CCCC(=O)Oc1c(C)nn(C)c(=O)c1-c1c(-c2ccc(F)cc2)sc2cc(C)c(C)cc12 [5-089]	0 (Herbicidal rate of 5% or less (almost no effect))	0 (Herbicidal rate of 5% or less (almost no effect))	3 (Herbicidal rate of 40% or more and less than 70%)												0 (Herbicidal rate of 5% or less (almost no effect))	3 (Herbicidal rate of 40% or more and less than 70%)	0 (Herbicidal rate of 5% or less (almost no effect))	0 (Herbicidal rate of 5% or less (almost no effect))	0 (Herbicidal rate of 5% or less (almost no effect))	0 (Herbicidal rate of 5% or less (almost no effect))	R: persian speedwell, herbicidal effect grade [9]: 0 (Herbicidal rate of 5% or less (almost no effect)); herbicidal effect on barnyard grass (H) [10]: 0 (Herbicidal rate of 5% or less (almost no effect)); herbicidal effect on wild oat (I) [11]: 0 (Herbicidal rate of 5% or less (almost no effect)); herbicidal effect on Italian ryegrass (K) [12]: 0 (Herbicidal rate of 5% or less (almost no effect)); herbicidal effect on windgrass (L) [13]: 0 (Herbicidal rate of 5% or less (almost no effect)); herbicidal effect on velvetleaf (M) [14]: 0 (Herbicidal rate of 5% or less (almost no effect)); herbicidal effect on lambsquarters (O) [15]: 0 (Herbicidal rate of 5% or less (almost no effect))
COc1cc(F)ccc1-c1sc2cc(C)c(C)cc2c1-c1c(O)c(C)nn(C)c1=O [5-101]	3 (Herbicidal rate of 40% or more and less than 70%)	3 (Herbicidal rate of 40% or more and less than 70%)	0 (Herbicidal rate of 5% or less (almost no effect))												2 (Herbicidal rate of 20% or more and less than 40%)	3 (Herbicidal rate of 40% or more and less than 70%)	0 (Herbicidal rate of 5% or less (almost no effect))	4 (Herbicidal rate of 70% or more and less than 90%)	0 (Herbicidal rate of 5% or less (almost no effect))	2 (Herbicidal rate of 20% or more and less than 40%)	herbicidal effect on barnyard grass (H) [10]: 3 (Herbicidal rate of 40% or more and less than 70%); herbicidal effect on wild oat (I) [11]: 0 (Herbicidal rate of 5% or less (almost no effect)); herbicidal effect on Italian ryegrass (K) [12]: 4 (Herbicidal rate of 70% or more and less than 90%); herbicidal effect on windgrass (L) [13]: 3 (Herbicidal rate of 40% or more and less than 70%); herbicidal effect on velvetleaf (M) [14]: 4 (Herbicidal rate of 70% or more and less than 90%); herbicidal effect on lambsquarters (O) [15]: 4 (Herbicidal rate of 70% or more and less than 90%)

— US20230085307A1, “PYRIDAZINONE COMPOUND AND HERBICIDE” (NISSAN CHEMICAL CORPORATION, priority 2019, published 2023)
